{
  "source": "patent US20110118313A1",
  "about": "“IDENTIFICATION OF A MOLECULAR SIGNATURE FOR ANTIPSYCHOTICS AND SERMS” (priority 2008, published 2011)",
  "key": {"ARPE-19 cell line": {"test_system": "ARPE-19 cell line", "assay": "Gene expression profiling (U133A2.0 microarrays) of drug-treated ARPE-19 cells; antipsychotic signature of lipid homeostasis genes", "type": "cell-based, human", "conditions": "ARPE-19, 10 μM, 24 hrs; for up-regulation of the top 20 probe sets of the antipsychotic group profile: FIG. 3", "text": "The retinal pigment epithelia cell line, ARPE-19/HPV-16, was chosen to establish a database of drug profiles because it is from non-cancerous human origin, with a normal karyotype, and can easily be grown as monolayer in 96-well plates. H4 is a hypertriploid cell line from glioblastoma origin, which was used only for independent replication. Cell lines were propagated according to supplier's specifications (ATCC Manassas, Va.). Compounds were obtained from Sigma (St. Louis, Mo.) or Vanda Pharmaceuticals (Rockville, Md.). Cells were aliquoted to 96-well plates (˜2×10e5 cells/well) and incubated for 24 hrs prior to providing fresh media with a drug, or the drug vehicle (water, dimethyl sulfoxide, ethanol, methanol, or phosphate-buffered saline solution). Drugs were diluted 1000 fold in buffered Advanced D-MEM/F-12 culture medium (Invitrogen, Carlsbad, Calif.) containing non-essential amino acids and 110 mg/L sodium pyruvate. In these conditions, no significant changes of pH were expected, which was confirmed by the monitoring of the pH indicator present in the medium. A final 10 μM drug concentration was chosen because it is believed to fit in the range of physiological relevance, and has been used in other cell line studies (Ferro et al. 2006; Lamb et al. 2006). Microscopic inspection of each well was conducted at the end of the treatment to discard any instance where cells had morphological changes consistent with apoptosis, and to verify that the drug had not precipitated in the culture medium.\nCells were harvested 24 hrs after treatment and RNA extracted using the RNeasy 96 protocol (Qiagen, Valencia, Calif.). Gene expression for 22,238 probe sets of 12,490 genes was generated with U133A2.0 microarrays following the manufacture's instructions (Affymetrix, Santa Clara, Calif.). Antipsychotics were profiled in duplicate or triplicate, with multiple vehicle controls on each plate. A total of 708 microarrays were analysed including 74 for the 18 antipsychotics, 499 for the other 448 compounds, and 135 for vehicle controls.\nEach drug treatment-vehicle control pair (treatment instance) was represented by a non-parametric rank-ordered list constructed as follows, similarly to the method described by Lamb and colleagues (Lamb et al. 2006). The raw scan data were first converted to average difference values using MAS 5.0 (Affymetrix). The average difference values of both treatment and control data were set to a minimum threshold of 50 if below 50. For each treatment instance, all probe sets were then ranked based on their amplitude, or level of expression relative to the vehicle control (or average of controls when more than one was used). Amplitude was defined as the ratio of expression (t−v)/[(t+v)/2] where t corresponds to treatment instance and v to vehicle instance.\nEach drug group profile was created using our novel Weighted Influence Model, Rank of Ranks (WIMRR) method which underscores the rank of each probe set across the entire gene expression profile rather than the specific change in expression level. WIMRR takes the average rank of each probe set across all of the members of the group and then re-ranks the probe sets from smallest average rank to largest average rank.\nA gene-set enrichment metric based on the Kolmogorov-Smirnov (KS) statistic was used in a similar fashion by Lamb and colleagues (Lamb et al. 2006). Specifically, for a given set of probes, the KS score gives a measure of how up (positive) or down (negative) the set of probes occurs within the profile of another treatment instance."}, "[1]": {"conditions": "2-3 weeks of antipsychotic treatment, schizophrenic patients; cited from earlier work"}, "[2]": {"conditions": "patients; cited from earlier work"}, "[3]": {"test_system": "Saccharomyces cerevisiae heterozygotes", "conditions": "cited from earlier work"}, "[4]": {"conditions": "women affected with schizophrenia; cited from earlier work"}, "[5]": {"conditions": "rats; cited from earlier work"}, "[6]": {"conditions": "patients with bipolar disorder; cited from earlier work"}, "mouse striatum": {"test_system": "mouse striatum", "conditions": "cited from earlier work"}},
  "data": [
    {"smiles": "Cc1nc2n(c(=O)c1CCN1CCC(c3noc4cc(F)ccc34)CC1)CCCC2", "note": "[risperidone]", "values": [
      {"measurement": "effect on lipid homeostasis (gene expression signature)", "setting": "ARPE-19 cell line", "value": "share a common gene expression signature"},
      {"measurement": "over-expression of RNAs for the desaturase genes FADS1 and FADS2", "setting": "ARPE-19 cell line", "value": "over-expression"},
      {"measurement": "plasma levels of certain lipid classes (PE, PC, TG, LY)", "setting": "[1]", "value": "significant increases"},
      {"measurement": "risk for weight gain and hyperlipidemia", "setting": "[2]", "value": "much lower risk"}
    ]},
    {"smiles": "COc1cc(C(C)=O)ccc1OCCCN1CCC(c2noc3cc(F)ccc23)CC1", "note": "[iloperidone]", "values": [
      {"measurement": "up-regulation of the top 20 probe sets of the antipsychotic group profile", "setting": "ARPE-19 cell line", "value": "stronger up-regulation"}
    ]},
    {"smiles": "CN1CCCCC1CCN1c2ccccc2Sc2ccc([S+](C)[O-])cc21", "note": "(centres unmarked) [mesoridazine]", "values": [
      {"measurement": "up-regulation of the top 20 probe sets of the antipsychotic group profile", "setting": "ARPE-19 cell line", "value": "lowest effect"}
    ]},
    {"smiles": "O=C1CCc2ccc(OCCCCN3CCN(c4cccc(Cl)c4Cl)CC3)cc2N1", "note": "[aripiprazole]", "values": [
      {"measurement": "plasma levels of certain lipid classes (PE, PC, TG, LY)", "setting": "[1]", "value": "minimal effect"}
    ]},
    {"smiles": "Cc1cc2c(s1)Nc1ccccc1N=C2N1CCN(C)CC1", "note": "[olanzapine]", "values": [
      {"measurement": "risk for weight gain and hyperlipidemia", "setting": "[2]", "value": "significant increased risk"}
    ]},
    {"smiles": "CCN(CC)CCOc1ccc(C(=C(Cl)c2ccccc2)c2ccccc2)cc1", "note": "[clomiphene]", "values": [
      {"measurement": "effect on lipid homeostasis (gene expression signature)", "setting": "ARPE-19 cell line", "value": "alter lipid homeostasis"}
    ]},
    {"smiles": "O=C1Cc2cc(CCN3CCN(c4nsc5ccccc45)CC3)c(Cl)cc2N1", "note": "[ziprasidone]", "values": [
      {"measurement": "effect on lipid homeostasis (gene expression signature)", "setting": "ARPE-19 cell line", "value": "share a common gene expression signature"},
      {"measurement": "risk for weight gain and hyperlipidemia", "setting": "[2]", "value": "much lower risk"}
    ]},
    {"smiles": "OCCN1CCN(CCCN2c3ccccc3Sc3ccc(Cl)cc32)CC1", "note": "[perphenazine]", "values": [
      {"measurement": "up-regulation of the top 20 probe sets of the antipsychotic group profile", "setting": "ARPE-19 cell line", "value": "stronger up-regulation"}
    ]},
    {"smiles": "CCc1c(C)[nH]c2c1C(=O)C(CN1CCOCC1)CC2", "note": "(centres unmarked) [Molindone]", "values": [
      {"measurement": "up-regulation of the top 20 probe sets of the antipsychotic group profile", "setting": "ARPE-19 cell line", "value": "lowest effect"}
    ]},
    {"smiles": "CN1CCN(CCCN2c3ccccc3Sc3ccc(C(F)(F)F)cc32)CC1", "note": "[trifluoperazine]", "values": [
      {"measurement": "effect on genes involved in yeast fatty acid biosynthesis, sterol biosynthesis or phospholipid transport", "setting": "[3]", "value": "strong effect"}
    ]},
    {"smiles": "OCCN1CCN(CCCN2c3ccccc3Sc3ccc(C(F)(F)F)cc32)CC1", "note": "[fluphenazine]", "values": [
      {"measurement": "up-regulation of the top 20 probe sets of the antipsychotic group profile", "setting": "ARPE-19 cell line", "value": "stronger up-regulation"}
    ]},
    {"smiles": "C[C@]12CC[C@@H]3c4ccc(O)cc4CC[C@H]3[C@@H]1CC[C@@H]2O", "note": "[oestradiol]", "values": [
      {"measurement": "symptoms of psychosis and cognitive functioning", "setting": "[4]", "value": "improve"}
    ]},
    {"smiles": "CN(C)CCCN1c2ccccc2Sc2ccc(Cl)cc21", "note": "[chlorpromazine]", "values": [
      {"measurement": "effect on genes involved in yeast fatty acid biosynthesis, sterol biosynthesis or phospholipid transport", "setting": "[3]", "value": "strong effect"}
    ]},
    {"smiles": "O=C(c1ccc(OCCN2CCCCC2)cc1)c1c(-c2ccc(O)cc2)sc2cc(O)ccc12", "note": "[raloxifene]", "values": [
      {"measurement": "effect on lipid homeostasis (gene expression signature)", "setting": "ARPE-19 cell line", "value": "alter lipid homeostasis"}
    ]},
    {"smiles": "CC/C(=C(\\c1ccccc1)c1ccc(OCCN(C)C)cc1)c1ccccc1", "note": "[tamoxifen]", "values": [
      {"measurement": "effect on lipid homeostasis (gene expression signature)", "setting": "ARPE-19 cell line", "value": "alter lipid homeostasis"},
      {"measurement": "obesity induced by the antipsychotic sulpiride", "setting": "[5]", "value": "prevent obesity"},
      {"measurement": "mania symptoms", "setting": "[6]", "value": "reduce mania symptoms"}
    ]},
    {"smiles": "O=C(CCCN1CCC(O)(c2ccc(Cl)cc2)CC1)c1ccc(F)cc1", "note": "[haloperidol]", "values": [
      {"measurement": "effect on genes involved in yeast fatty acid biosynthesis, sterol biosynthesis or phospholipid transport", "setting": "[3]", "value": "strong effect"},
      {"measurement": "differential expression of genes involved in lipid metabolism", "setting": "mouse striatum", "value": "differential expression of genes involved in lipid metabolism"}
    ]}
  ]
}
